# According to US20220233661A1, “METHOD OF DETERMINING ELIGIBILITY OF CANCER PATIENT FOR PEPTIDE VACCINE THERAPY” (priority 2019, published 2022):
# Key:
# cancer patients = test: Test Example 4: correlation between vaccination with individual peptides (or peptide sets) and OS, Cox proportional hazards regression; assay type: in vivo, human; settings: for HR: Cox proportional hazards regression, OS; for Correlation between immune responses and OS: Negative (mOS) / Correlation between immune responses and OS: Positive (mOS): Table 20, <64% neutrophil and ≥26% lymphocyte; for Correlation between immune responses and OS: Negative (mOS): vaccinated patients with negative IgG response; for Correlation between immune responses and OS: Positive (mOS): vaccinated patients with positive IgG response
# Summary of the method: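 Univariate and multivariate Cox proportional hazards regression of each of 31 vaccine peptides against OS (enrollment to death or last contact), giving HR with 95% CI; also run separately in 2,085 advanced (stage IV+recurrence) and 503 stage I-III patients. Two-sided p<0.05 considered significant.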
# [1] = tested on: anti-peptide IgG in plasma; test: Test Example 4: peptide-specific IgG titer pre and post vaccination, bead-based multiplexed Luminex assay; assay type: in vivo, human; settings: for Pre-vaccination IgG Negative (number of patients) / Pre-vaccination IgG Positive (number of patients): cut off 10 FIU; for Post vaccination IgG: number of (positive) patients among vaccinated: positive IgG response; for Pre-vaccination IgG Negative patients: number of 2,588 patients below 10 FIU; for Pre-vaccination IgG Positive patients: number of 2,588 patients with ≥10 FIU; for Post vaccination IgG: (positive) patients: number of vaccinated patients with positive IgG response; for Correlation between immune responses and OS: Negative (mOS): patients with negative post-vaccination IgG response to the peptide; for Correlation between immune responses and OS: Positive (mOS): patients with positive post-vaccination IgG response to the peptide
# Summary of the method: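 Plasma taken before vaccination and at the end of the first and second cycles; incubated with peptide-coupled beads 2 hours at 25° C., then biotinylated anti-human IgG (gamma chain-specific) and streptavidin-PE. Bead FIU read by Luminex; positivity cutoff 10 FIU in 100-fold diluted samples.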
# [2] = 2,085 advanced cancer patients (stage IV+recurrence)
# [3] = Table 18, all 2,588 cases, vaccinated vs non-vaccinated
# [4] = Table 18, all 2,588 cases, median OS of patients under PPV containing the peptide
# [5] = Table 18, all 2,588 cases, median OS of patients under PPV not containing the peptide
# [6] = Table 19, 2,085 advanced cancer patients (stage IV+recurrence)
# [7] = Table 19, 2,085 advanced cancer patients (stage IV+recurrence), PPV containing the peptide
# [8] = Table 19, 2,085 advanced cancer patients (stage IV+recurrence), PPV not containing the peptide
# [9] = Table 21, patients showing both <64% neutrophil and ≥26% lymphocyte
# [10] = Table 21, patients showing both <64% neutrophil and ≥26% lymphocyte, PPV containing the peptide
# [11] = Table 21, patients showing both <64% neutrophil and ≥26% lymphocyte, PPV not containing the peptide
# [12] = Table 20, patients showing both <64% neutrophil and ≥26% lymphocyte
# [13] = patients showing detectable levels
# [14] = patients showing positive responses
Sequence,HR (cancer patients; [3]),Vaccinate cases (mOS) (cancer patients; [4]),Non-vaccinate cases (mOS) (cancer patients; [5]),HR (cancer patients; [6]),Vaccinate cases (mOS) (cancer patients; [7]),Non-vaccinate cases (mOS) (cancer patients; [8]),Correlation between immune responses and OS: Negative (mOS) (cancer patients) [months],Correlation between immune responses and OS: Positive (mOS) (cancer patients) [months],HR (cancer patients; [9]),Vaccinate cases (mOS) (cancer patients; [10]),Non-vaccinate cases (mOS) (cancer patients; [11]),"Post vaccination IgG Median (FIU) [1, 12]","Pre-vaccination IgG Median (FIU) [1, 12] [FIU]","Pre-vaccination IgG Negative (number of patients) [1, 12]","Pre-vaccination IgG Positive (number of patients) [1, 12]","Post vaccination IgG: number of (positive) patients among vaccinated [1, 12]",Pre-vaccination IgG Negative patients [1],Pre-vaccination IgG Positive patients [1],Post vaccination IgG: (positive) patients [1],"Pre-vaccination IgG Median (FIU) [1, 13] [FIU]",also measured
HYTNASDGL (listed as Homo sapiens) [Lck-208],0.9,134(19.7) M,"1,416(11.4) M",0.7,103(17.1) M,1143(10.0) M,19.9,34,0.7,69(26.7) M,556(17.6) M,"9,551 FIU",31,839,227,69(36),"2,028",560,134(64),30,"median OS of non-vaccinated cases (cancer patients; [2]): 10 months; median OS of vaccinated cases (cancer patients; [2]): 17.1 months; Post vaccination IgG Median (FIU) [1, 14]: 4,597 FIU; Correlation between immune responses and OS: Negative (mOS) [1]: 16.0 months; Correlation between immune responses and OS: Positive (mOS) [1]: 30.5 months"
VIQNLERGYR (listed as Homo sapiens) [Lck-449],0.9,127(13.7) M,"1,087(10.8) M",0.8,102(13.3) M,867(9.5) M,10,27.1,0.8,57(18.1) M,450(17.5) M,"18,734 FIU",23,475,591,57(38),"1,182","1,406",127(67),23,"Post vaccination IgG Median (FIU) [1, 14]: 18,919 FIU; Correlation between immune responses and OS: Negative (mOS) [1]: 6.2 months; Correlation between immune responses and OS: Positive (mOS) [1]: 19.5 months"
KYVGIEREM (listed as Homo sapiens) [EZH2-735],0.9,69(13.3) M,"1,481(11.9) M",0.9,53(11.9) M,1193(10.4) M,6.7,26.7,0.7,31(26.5) M,594(18.0) M,"20,673 FIU",23,837,229,31(25),"2,030",558,69(51),23,"Post vaccination IgG Median (FIU) [1, 14]: 17,691 FIU; positive immune responses post-vaccination (positive of vaccinated cases) ([1]; patients who completed at least the first cycle): 51 of 69; Correlation between immune responses and OS: Negative (mOS) [1]: 5.3 months; Correlation between immune responses and OS: Positive (mOS) [1]: 24.7 months"
WLEYYNLER (listed as Homo sapiens) [SART3-511],1.0,439(11.0) M,775(11.2) M,1.0,346(9.9) M,623(10.0) M,17.1,29.2,0.9,179(19.0) M,328(17.5) M,"1,095 FIU",38,264,802,179(82),621,"1,967",439(145),41,"Post vaccination IgG Median (FIU) [1, 14]: 921 FIU; Correlation between immune responses and OS: Negative (mOS) [1]: 10.8 months; Correlation between immune responses and OS: Positive (mOS) [1]: 22.6 months"
LYAWEPSFL (listed as Homo sapiens) [MRP3-503],0.9,133(14.1) M,"1,417(11.9) M",0.9,108(13.4) M,1138(10.4) M,12.6,25.1,1.0,61(24.3) M,564(18.1) M,"13,871 FIU",40,885,181,61(46),"2,121",467,133(85),37,"Post vaccination IgG Median (FIU) [1, 14]: 6,401 FIU; Correlation between immune responses and OS: Negative (mOS) [1]: 9.3 months; Correlation between immune responses and OS: Positive (mOS) [1]: 20.6 months"
KLKHYGPGWV (listed as Homo sapiens) [CypB-129],0.9,483(12.3) M,1458(11.2) M,0.9,393(10.9) M,1183(10.1) M,13.2,29.4,0.9,196(19.3) M,612(16.9) M,"3,143 FIU",28,290,776,196(110),700,"1,888",483(222),31,"Post vaccination IgG Median (FIU) [1, 14]: 2,483 FIU; Correlation between immune responses and OS: Negative (mOS) [1]: 9.0 months; Correlation between immune responses and OS: Positive (mOS) [1]: 23.8 months"
